Data as given in patent US20170334899A1, “AMINO-SUBSTITUTED ISOTHIAZOLES” (Bayer Pharma Aktiengesellschaft, priority 2014, published 2017).

Key:
Format in all cases: cell-based
[1] = test system: Caco-2; assay: Proliferation assay (crystal violet), Caco-2; settings: Homo sapiens, 96 h; Caco-2 cells; 4 days incubation; crystal violet staining; read-out: IC50 inhibition of proliferation, Caco2
Method: (§1) Cultivated tumor cells (cells were ordered from ATCC, except HeLa-MaTu and HeLa-MaTu-ADR, which were ordered from EPO-GmbH, Berlin) were plated at a density of 1000 to 5000 cells/well, depending on the growth rate of the respective cell line, in a 96-well multititer plate in 200 μL of their respective growth medium supplemented 10% fetal calf serum. After 24 hours, the cells of one plate (zero-point plate) were stained with crystal violet (see below), while the medium of the other plates was replaced by fresh culture medium (200 μl), to which the test substances were added in various concentrations (0 μM, as well as in the range of 0.001-10 μM; the final concentration of the solvent dimethyl sulfoxide was 0.5%). The cells were incubated for 4 days in the presence of test substances. Cell proliferation was determined by staining the cells with crystal violet: the cells were fixed by adding 20 μl/measuring point of an 11% glutaric aldehyde solution for 15 minutes at room temperature. After three washing cycles of the fixed cells with water, the plates were dried at room temperature. The cells were stained by adding 100 μl/measuring point of a 0.1% crystal violet solution (pH 3.0). After three washing cycles of the stained cells with water, the plates were dried at room temperature. The dye was dissolved by adding 100 μl/measuring point of a 10% acetic acid solution. Absorbtion was determined by photometry at a wavelength of 595 nm. The change of cell number, in percent, was calculated by normalization of the measured values to the aborbtion values of the zero-point plate (=0%) and the absorbtion of the untreated (0 μm) cells (=100%). The IC50 values were determined by means of a 4 parameter fit.

[2] = test system: NCI-H460; assay: Proliferation assay (crystal violet), NCI-H460; settings: Homo sapiens, 96 h; NCI-H460 cells; 4 days incubation; crystal violet staining; read-out: IC50 inhibition of proliferation, NCI-H460
Method: as §1

[3] = test system: B16F10; assay: Proliferation assay (crystal violet), B16F10; settings: Mus musculus, B16-F10, 96 h; B16F10 cells; 4 days incubation; crystal violet staining; read-out: IC50 inhibition of proliferation, B16F10
Method: as §1

[4] = test system: HeLa-MaTu-ADR; assay: Proliferation assay (crystal violet), HeLa-MaTu-ADR; settings: 96 h; HeLa-MaTu-ADR cells; 4 days incubation; crystal violet staining; read-out: IC50 inhibition of proliferation, HeLa-MaTu-ADR
Method: as §1

[5] = test system: HeLa; assay: Proliferation assay (crystal violet), HeLa; settings: Homo sapiens, HeLa, 96 h, HeLa cells; 4 days incubation; crystal violet staining; read-out: IC50 inhibition of proliferation, HeLa
Procedure, shortened: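 Cells plated at 1000-5000/well with 10% FCS, treated after 24 h with compound at 0.001-10 μM (0.5% DMSO) for 4 days. Glutaraldehyde-fixed, crystal violet-stained, A595 normalised to zero-point plate (0%) and untreated cells (100%); IC50 by 4-parameter fit.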

[6] = test system: DU145; assay: Proliferation assay (crystal violet), DU145; settings: Homo sapiens, DU-145, 96 h; DU145 cells; 4 days incubation; crystal violet staining; read-out: IC50 inhibition of proliferation, DU145
Method: as §1

Row | Structure (SMILES) | IC50 [1] [nM] | IC50 [2] [nM] | IC50 [3] [nM] | IC50 [4] [nM] | IC50 [5] [nM] | IC50 [6] [nM]
1 | Cc1nsc(Nc2cnc(C(F)(F)F)cn2)c1C(=O)Nc1ccc(C(=O)OC(C)(C)C)cc1 [Example 96, tert-Butyl 4-{[(3-methyl-5-{[5-(trifluoromethyl)pyrazin-2-yl]amino}-1,2-thiazol-4-yl)carbonyl]amino}benzoate] | 330 | 740 | 1100 | 410 | 1100 | 800
2 | Cc1nsc(Nc2cncc(C(F)(F)F)n2)c1C(=O)Nc1ccc(OCC2CCN(C(=O)OC(C)(C)C)C2)nc1 (stereo not drawn) [Example 110, tert-Butyl 3-{[(5-{[(3-methyl-5-{[6-(trifluoromethyl)pyrazin-2-yl]amino}-1,2-thiazol-4-yl)carbonyl]amino}pyridin-2-yl)oxy]methyl}pyrrolidine-1-carboxylate] | 1500 | 360 | 800 | 950 | 850 | 2000
3 | Cc1nsc(Nc2cncc(C(F)(F)F)n2)c1C(=O)Nc1ccc(OC2CCN(C(=O)OC(C)(C)C)CC2)nc1 [Example 12, tert-Butyl 4-[(5-{[(3-methyl-5-{[6-(trifluoromethyl)pyrazin-2-yl]amino}-1,2-thiazol-4-yl)carbonyl]amino}pyridin-2-yl)oxy]piperidine-1-carboxylate] | 470 | 270 | 400 | 640 | 910 | 1100
4 | Cc1nsc(Nc2cnc(C(F)(F)F)cn2)c1C(=O)Nc1ccc(OC2CCN(CCF)CC2)nc1 [Example 7, N-(6-{[1-(2-Fluoroethyl)piperidin-4-yl]oxy}pyridin-3-yl)-3-methyl-5-{[5-(trifluoromethyl)pyrazin-2-yl]amino}-1,2-thiazole-4-carboxamide] | 920 | 810 | 1500 | 520 | 580 | 1400
5 | Cc1nsc(Nc2ccc(C#N)cn2)c1C(=O)Nc1ccc(Oc2cccc(C(F)(F)F)c2)nc1 [Example 118, 5-[(5-Cyanopyridin-2-yl)amino]-3-methyl-N-{6-[3-(trifluoromethyl)phenoxy]pyridin-3-yl}-1,2-thiazole-4-carboxamide] | 340 | 480 | 380 | 320 | 600 | 750
6 | Cc1nsc(Nc2cnc(C(F)(F)F)cn2)c1C(=O)Nc1ccc(OCC2CCN(C(=O)OC(C)(C)C)C2)nc1 (stereo not drawn) [Example 109, tert-Butyl 3-{[(5-{[(3-methyl-5-{[5-(trifluoromethyl)pyrazin-2-yl]amino}-1,2-thiazol-4-yl)carbonyl]amino}pyridin-2-yl)oxy]methyl}pyrrolidine-1-carboxylate] | 280 | 230 | 350 | 170 | 200 | 660
7 | Cc1nsc(Nc2cnc3ccccc3n2)c1C(=O)Nc1cccc(-c2nc(C(C)(C)C)no2)c1 [Example 108, N-[3-(3-tert-Butyl-1,2,4-oxadiazol-5-yl)phenyl]-3-methyl-5-(quinoxalin-2-ylamino)-1,2-thiazole-4-carboxamide] | 300 | 290 | 700 | 330 | 910 | 570

Stronger by IC50 [1], values ahead:

Row | IC50 [1] [nM] | IC50 [2] [nM] | IC50 [3] [nM] | IC50 [4] [nM] | IC50 [5] [nM] | IC50 [6] [nM] | Structure (SMILES)
8 | 150 | 100 | 210 | 110 | 280 | 250 | Cc1nsc(Nc2cnc(C(F)(F)F)cn2)c1C(=O)Nc1ccc(OC2CCN(CC(F)F)CC2)nc1 [Example 8, N-(6-{[1-(2,2-Difluoroethyl)piperidin-4-yl]oxy}pyridin-3-yl)-3-methyl-5-{[5-(trifluoromethyl)pyrazin-2-yl]amino}-1,2-thiazole-4-carboxamide]
9 | 110 | 170 | 460 | 150 | 690 | 460 | Cc1nsc(Nc2ccc(C#N)cn2)c1C(=O)Nc1ccc(C(=O)OC(C)(C)C)cc1 [Example 98, tert-Butyl 4-[({5-[(5-cyanopyridin-2-yl)amino]-3-methyl-1,2-thiazol-4-yl}carbonyl)-amino]benzoate]
10 | 180 | 170 | 300 | 57 | 330 | 140 | Cc1nsc(Nc2cnc(C(F)(F)F)cn2)c1C(=O)Nc1ccc(OC2CCN(CCC(F)(F)F)CC2)nc1 [Example 10, 3-Methyl-5-{[5-(trifluoromethyl)pyrazin-2-yl]amino}-N-(6-{[1-(3,3,3-trifluoropropyl)-piperidin-4-yl]oxy}pyridin-3-yl)-1,2-thiazole-4-carboxamide]
11 | 160 | 98 | 190 | 130 | 220 | 300 | Cc1nsc(Nc2cnc(C(F)(F)F)cn2)c1C(=O)Nc1ccc(OC2CCN(CC(F)(F)F)CC2)nc1 [Example 9, -Methyl-N-(6-{[1-(2,2,2-trifluoroethyl)piperidin-4-yl]oxy}pyridin-3-yl)-5-{[5-(trifluoromethyl)pyrazin-2-yl]amino}-1,2-thiazole-4-carboxamide]
12 | 100 | 300 | 730 | 660 | 880 | 310 | Cc1nsc(Nc2cnc3ccccc3n2)c1C(=O)Nc1ccc(Oc2cccc(C(F)(F)F)c2)nc1 [Example 117, 3-Methyl-5-(quinoxalin-2-ylamino)-N-{6-[3-(trifluoromethyl)phenoxy]pyridin-3-yl}-1,2-thiazole-4-carboxamide]
